Data as given in US20110117165A1, “IMPLANTABLE BONE GRAFT MATERIALS” (AFFINERGY, INC., priority 2009, published 2011).
Ends that are not written are not given here. MP = mini-PEG unit; Mpa = O=C(O)CCS

Columns and labels:
BMP-2 [1] = biological target: T1, BMP-2 (Homo sapiens, UniProt P12643); assay: Binding of immobilized biotinylated BMP binding peptides to BMP-2 (ELISA); conditions: BMP-2 at 200, 20 and 2 nM, 45 minutes
T1 sequence (P12643 283-396): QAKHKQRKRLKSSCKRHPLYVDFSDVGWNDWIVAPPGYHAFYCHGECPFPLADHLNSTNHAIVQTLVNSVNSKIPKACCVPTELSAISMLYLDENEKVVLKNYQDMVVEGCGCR
Description: (§1) BMP binding peptides SEQ ID NOs:1-4 & 8-10 were identified as described in US Patent Application Publication No. US20060051395A1. Briefly, the peptides were identified by phage display using immobilized BMP-2 as a substrate for the phage library selections. Synthetic peptides SEQ ID NOs: 1-2 were determined to bind to BMP-2 with a relative EC50 value of 0.8 nM and 0.9 nM, respectively (data not shown). Separately, the relative binding affinity of peptides SEQ ID NOs: 1-2 for BMP-2 is shown in FIG. 14A (SEQ ID NO: 1 is denoted as P9 and SEQ ID NO: 2 is denoted as P10). Briefly, the results shown in FIG. 14A were generated by immobilizing biotinylated BMP binding peptides SEQ ID NOs:1 & 2 on streptavidin coated plates. Serial dilutions of 200 nM, 20 nM and 2 nM of BMP-2 were incubated with the immobilized BMP binding peptides for 45 minutes, washed, and bound BMP quantified using ELISA.

BMP-7 = biological target: T2, BMP-7 (Homo sapiens, UniProt P18075); assay: Binding of immobilized BMP binding peptides to BMP-7 (ELISA)
T2 sequence (P18075 293-431): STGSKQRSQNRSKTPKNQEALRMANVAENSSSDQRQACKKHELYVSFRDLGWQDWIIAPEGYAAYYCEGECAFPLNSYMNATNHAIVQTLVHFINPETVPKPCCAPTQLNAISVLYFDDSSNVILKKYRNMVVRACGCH

BMP-5 = biological target: T3, BMP-5 (Homo sapiens, UniProt P22003); assay: Binding of immobilized BMP binding peptides to BMP-5 (ELISA); conditions: BMP at 100 nM and 10 nM
T3 sequence (P22003 317-454): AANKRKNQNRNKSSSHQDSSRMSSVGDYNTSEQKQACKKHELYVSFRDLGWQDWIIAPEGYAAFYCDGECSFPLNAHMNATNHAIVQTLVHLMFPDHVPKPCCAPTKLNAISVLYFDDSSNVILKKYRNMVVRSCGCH
Description: as §1
(§2) BMP binding peptides SEQ ID NOs: 5-7 were identified as described in US Patent Application Publication No. US20090098175A1. Briefly, the peptides were identified by phage display using immobilized GDF-7 (GDF-7 is BMP-12) as a substrate for the phage library selections. […] The data shown in FIG. 14C were collected similarly to that described above for FIGS. 14A-14B except that the serial dilutions of BMP were 100 nM and 10 nM.

BMP-6 = biological target: T4, BMP-6 (Homo sapiens, UniProt P22004); assay: Binding of immobilized BMP binding peptides to BMP-6 (ELISA); conditions: BMP at 100 nM and 10 nM
T4 sequence (P22004 375-513): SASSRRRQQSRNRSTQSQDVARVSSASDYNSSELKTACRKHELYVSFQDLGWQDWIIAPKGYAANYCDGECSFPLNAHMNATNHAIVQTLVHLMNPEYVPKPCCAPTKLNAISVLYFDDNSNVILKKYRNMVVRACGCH
Description: as §1, §2

C2C12 cells = assay: Alkaline phosphatase secretion by C2C12 cells in response to BMP-2; assay type: cell-based; conditions: peptide 0-3500 nM, 3 days
Description: In an experiment to test the biological activity of BMP-2 delivered by BMP binding peptide, alkaline phosphatase secreted by C2C12 cells in response to BMP-2 was measured in the presence and absence of BMP binding peptide in solution. C2C12 cells were incubated with BMP-2 (35 nM) and BMP binding peptide at a concentration ranging from 0-3500 nM. The C2C12 cells were incubated with the BMP-2 and BMP binding peptide for 3 days and the alkaline phosphatase assay was performed as described herein above.

GDF-7 (BMP-12) = biological target: T5, GDF-7 (BMP-12) (Homo sapiens, UniProt Q7Z4P5); assay: Binding to GDF-7 (phage display selection substrate)
T5 sequence (Q7Z4P5 322-450): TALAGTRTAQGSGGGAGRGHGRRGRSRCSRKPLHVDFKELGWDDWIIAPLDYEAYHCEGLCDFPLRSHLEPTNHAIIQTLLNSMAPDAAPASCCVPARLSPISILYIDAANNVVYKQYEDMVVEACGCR
Description: as §2

BMP-2 [2] = biological target: T6, BMP-2 (UniProt P12643 283-396); assay: relative EC50 of synthetic peptide on BMP-2; format not described, data not shown
T6 construct: also called bone morphogenic protein 2

BMP-2 [3] = biological target: T6, BMP-2; assay: collagenase digest of sponge after 24 h in plasma, ELISA; data not shown
Description: The BMP binding peptide-modified […] collagen sponges generated in Example 2 were evaluated for ability to bind and retain BMP-2. […] The amount of BMP-2 released into the plasma at each time-point was measured by ELISA (QUANTIKINE, R&D SYSTEMS), and the amount retained on the sponge after 24 h was estimated by Western blot analysis. […] After 24 h, the sponges were digested by collagenase, and the amount of BMP-2 retained on the sponges was quantified by ELISA.

BMP-2 [4] = biological target: T6, BMP-2; assay: relative EC50 of peptide on BMP-2; format not described, data not shown

## GGALGFPLKGEVVEGWA-NH2 (C-terminus assumed) [SEQ ID NO: 2]
BMP-2 [1]
  relative binding affinity for BMP-2 (FIG. 14A): high relative affinity
BMP-7
  relative binding affinity for BMP-7 (FIG. 14B): high relative affinity
BMP-5
  binding to BMP-5 (FIG. 14C): bind
BMP-6
  binding to BMP-6 (FIG. 14C): bind
C2C12 cells; BMP-2 35 nM
  effect on BMP-2 biological activity (alkaline phosphatase secretion): does not interfere with the biological activity of BMP-2
C2C12 cells
  BMP-2 activity of the peptide on its own: does not have BMP-2 activity on its own

## GGGAWEAFSSLSGSRV [SEQ ID NO: 1]
BMP-2 [1]
  relative binding affinity for BMP-2 (FIG. 14A): high relative affinity
BMP-7
  relative binding affinity for BMP-7 (FIG. 14B): high relative affinity
BMP-5
  binding to BMP-5 (FIG. 14C): bind
BMP-6
  binding to BMP-6 (FIG. 14C): bind

## SSGGVGGWALFETLRGKEVSR [SEQ ID NO: 6]
BMP-5
  binding to BMP-5 (FIG. 14C): bind
BMP-6
  binding to BMP-6 (FIG. 14C): bind
GDF-7 (BMP-12)
  binding to GDF-7: binding GDF-7

## SSGPREIWDSLVGVVNPGWSR [SEQ ID NO: 5]
BMP-5
  binding to BMP-5 (FIG. 14C): bind
BMP-6
  binding to BMP-6 (FIG. 14C): bind
GDF-7 (BMP-12)
  binding to GDF-7: binding GDF-7

## SSVAEWALRSWEGMRVGEASR [SEQ ID NO: 7]
BMP-5
  binding to BMP-5 (FIG. 14C): bind
BMP-6
  binding to BMP-6 (FIG. 14C): bind
GDF-7 (BMP-12)
  binding to GDF-7: binding GDF-7

B1: BMP binding peptide SEQ ID NO: 2 (peptide)
peptide: GGALGFPLKGEVVEGWA
modifications: also: biotinylated, position not given here
notes: Synthetic peptide found by phage display on immobilized BMP-2; also called P10
BMP-2 [2]
  EC50: 0.9 nM

## {Mpa-MP-MP}-GGALGFPLKGEVVEGWA-NH2 (also: attached to collagen through a disulfide, also called Peptide1) [HS-Propionyl-MP-MP-(SEQ ID NO: 2)-amide, covalently attached to collagen]
BMP-2 [3]
  fold BMP-2 retained against unmodified sponge after 24 h: > 40 fold

B2: BMP binding peptide SEQ ID NO: 7 (peptide)
peptide: SSVAEWALRSWEGMRVGEASR
modifications: also: biotinylated for plate assay, position not given here
notes: Found by phage display on immobilized GDF-7; also called P13
BMP-2 [4]
  EC50: 1.1 nM

B3: BMP binding peptide SEQ ID NO: 5 (peptide)
peptide: SSGPREIWDSLVGVVNPGWSR
modifications: also: biotinylated, position not given here
notes: Found by phage display on immobilized GDF-7; also called P11
BMP-2 [4]
  EC50: 2 nM

B4: BMP binding peptide SEQ ID NO: 6 (peptide)
peptide: SSGGVGGWALFETLRGKEVSR
modifications: also: biotinylated for plate assay, position not given here
notes: Found by phage display on immobilized GDF-7; also called P12
BMP-2 [4]
  EC50: 1.8 nM

B5: BMP binding peptide SEQ ID NO: 1 (peptide)
peptide: GGGAWEAFSSLSGSRV
modifications: also: biotinylated, position not given here
notes: Synthetic peptide found by phage display on immobilized BMP-2; also called P9
BMP-2 [2]
  EC50: 0.8 nM

B6: BMP binding peptide SEQ ID NO: 1 containing a free thiol group, covalently attached to HELISTAT collagen (peptide)
peptide: GGGAWEAFSSLSGSRV
modifications: also: free thiol group added, position and spacer not given here, attached to collagen through a disulfide
notes: also called Peptide2; Peptide 2
BMP-2 [3]
  fold BMP-2 retained against unmodified sponge after 24 h: > 40 fold
